From patent US20020086278A1, “CHROMOGENIC MEDIA CONTAINING BLOOD OR HEMIN” (priority 1999, published 2002)
Read-outs that look alike come from different tables or passages of the source.

What was measured:
S. epidermidis 12228 = assay: Example 1: growth and colony color on plates surface-spread with chromogen; format: cell-based; conditions: Summary of Table I; S. epidermidis 12228
[1] = test system: Staphylococcus aureus 25923; assay: as above; format: cell-based; conditions: S. aureus 25923
[2] = test system: Streptococcus pneumoniae 6303; assay: as above; format: cell-based
[3] = test system: Branhamella catarrhalis 25238; assay: as above; format: cell-based; conditions: for Growth: B. catt 25258
Group B Strep. 12386 = assay: as above; format: cell-based; conditions: for Growth: Group B Strep 12386
N. gonorrhoeae 35201 = assay: as above; format: cell-based; conditions: Summary of Table I; N. gonorrhoeae 35201
[4] = test system: Gardnerella vaginalis 14019; assay: as above; format: cell-based; conditions: Summary of Table I; G. vaginalis 14014
N. sicca 29193 [5] = assay: as above; format: cell-based
S. aureus 25923 = assay: Example 2: effect of incubation conditions on colony color formation; format: cell-based, Staphylococcus aureus
N. sicca 29193 [6] = assay: as above; format: cell-based
[7] = test system: bacterial test strains of Example 1; assay: Example 1: inhibitory effect over all test strains; format: cell-based; conditions: Example 1, all test strains
[8] = Color contrast of chromogen on blood plate
[9] = Precipitate of chromogen on pre-plated media; format: physicochemical; conditions: 50 μl DMSO solution on pre-plated media
Method: 50 μl of each chromogen solution was added to the surface of each of the following pre-plated media (one chromogen solution per plate):
The solution was dispersed using a spreader and allowed to dry 3-4 hours in a hood.

[10] = test system: Aeromonas hydrophilia (aehy); assay: Example 3: colony color on chromogenic TSA II with 5% sheep blood (chromogen in medium); format: cell-based; conditions: for Colony Color: CO2, 21 h
[11] = test system: Branhamella catarrhalis (brca); assay: as above; format: cell-based; conditions: for Colony Color: CO2, 21 h
Candida albicans (caal) = assay: as above; format: cell-based; conditions: for Colony Color: caal 10231, 24 h
[12] = test system: Citrobacter freundii (cifr); assay: as above; format: cell-based; conditions: for Colony Color: CO2, 21 h
[13] = test system: Entercoccus faecalis (enfa); assay: as above; format: cell-based
E. faecium (enfu) = assay: as above; format: cell-based; conditions: for Colony Color: enfu 49032, 21 h
[14] = test system: E. coli (non-O157) (esco); format: cell-based
[15] = test system: Klebsiella pneumoniae (klpn); assay: Example 3: colony color on chromogenic TSA II with 5% sheep blood (chromogen in medium); format: cell-based
[16] = test system: Pseudomonas aeruginosa (psae); assay: as above; format: cell-based; conditions: for Colony Color: CO2, 21 h
Salmonella spp. (sasp) = format: cell-based; conditions: for Colony Color: CO2, 21 h
[17] = test system: Serratia marcescens (sema); assay: Example 3: colony color on chromogenic TSA II with 5% sheep blood (chromogen in medium); format: cell-based
[18] = test system: Streptococcus agalactiae (stag); assay: as above; format: cell-based
[19] = test system: Staphylococcus aureus (stau); assay: as above; format: cell-based
[20] = test system: Staphylococcus Coag Neg (step); assay: as above; format: cell-based; conditions: for Colony Color: 21 h
S. milleri (stmi) = assay: as above; format: cell-based; conditions: for Colony Color: stmi 6249, 21 h
S. pneumoniae (stpn) = assay: as above; format: cell-based
S pyogenes (stpy) = assay: as above; format: cell-based; conditions: for Colony Color: 21 h
55 strains = assay: Example 3: color, hemolytic activity and growth over all 55 strains; format: cell-based; conditions: chromogenic TSA II
Text: Steers, E. et al., Antibiot.

cakr 34135 = assay: Example 3: colony color on chromogenic TSA II with 5% sheep blood (chromogen in medium); format: cell-based; conditions: CO2, 21 h
milu 9341 = assay: as above; format: cell-based; conditions: CO2, 21 h
[21] = chromogenic TSA II with 5% Sheep Blood, 0.1 g/l, 3 strains tested
[22] = chromogenic TSA II with 5% Sheep Blood, 0.1 g/l, 2 strains tested
[23] = chromogenic TSA II with 5% Sheep Blood, 0.1 g/l, 6 strains tested
[24] = chromogenic TSA II with 5% Sheep Blood, 0.1 g/l, 1 strain tested
[25] = chromogenic TSA II with 5% Sheep Blood, 0.1 g/l, 5 strains tested

Compound: 5-Br-4-Cl-3-indolyl-caprylate [X-Cap]
- Substrates Producing Growth Inhibition (S. epidermidis 12228): X-Cap
- Color ([1]; Choc II): turquoise
- Substrates Producing Color ([1]; Summary of Table I): X-Cap
- Color ([1]; TSA II 5SB): turquoise
- Color ([1]; TSA Plain): turquoise
- Substrates Producing Growth Inhibition ([2]; Summary of Table I, S. pneumoniae 6303): X-Cap
- Growth ([2]; TSA II 5SB, S. pneu: 6303): <
- Growth ([3]; Choc II): <
- Substrates Producing Growth Inhibition ([3]; Summary of Table I, B. catarrhalis 25238): X-Cap
- Growth ([3]; TSA II 5SB): <
- Growth (Group B Strep. 12386; Choc II): <<
- Substrates Producing Growth Inhibition (Group B Strep. 12386; Summary of Table I, Group B Strep. 12386): Slight inhib. w/ X-
- Growth (Group B Strep. 12386; TSA II 5SB): <
- Substrates Producing Growth Inhibition (N. gonorrhoeae 35201): X-Cap
- Substrates Producing Growth Inhibition [4]: X-Cap
- Color (N. sicca 29193 [5]; Substrate on Choclate II Agar, N. sicca. 29193): blue
- Substrates Producing Color (N. sicca 29193 [5]; Summary of Table I, N. sicca 29193): X-cap
- Colony Color (S. aureus 25923): blue (l)
- Colony Color (N. sicca 29193 [6]): blue (m)
- Inhibitory effect [7]: most inhibitory effect

Compound: Oc1c[nH]c2ccc(Br)c(Cl)c12 [5-Bromo-4-chloro-3-indoxyl]
- Absorption max (nm) [8]: 615 nm

Compound: Oc1c[nH]c2cc(Cl)ccc12 [6-chloro-3-indoxyl]
- Absorption max (nm) [8]: 540 nm

Compound: O=C([O-])[C@H]1O[C@@H](Oc2c[nH]c3ccc(Br)c(Cl)c23)[C@H](O)[C@@H](O)[C@@H]1O.[Na+] [X-Glucuro(s), 5-Br-4-Cl-3-indolyl-β-D-glucuronide (sodium salt)]
- Precipitate when spread / placed on the plated media [9]: remained clear

Compound: Magenta-caprylate [M-Cap]
- Colony Color ([10]; aehy 7965): 0
- Colony Color ([10]; aehy 7966): 0
- Colony Color ([10]; aehy 49847): 0
- Colony Color (Summary) [10, 21]: 0
- Colony Color ([11]; brca 25238): 0
- Colony Color ([11]; brca 25240): 0
- Colony Color (Summary) [11, 22]: 0
- Colony Color (Candida albicans (caal); CO2): 0
- Colony Color (Candida albicans (caal); air): 0
- Colony Color (Summary) (Candida albicans (caal); [22]): 0
- Colony Color (Summary) [12, 22]: 0
- Colony Color ([12]; cifr 8454): 0
- Colony Color ([12]; cifr 33128): 0
- Colony Color (Summary) [13, 23]: 0
- Colony Color ([13]; enfa 597, CO2, 21 h): 0
- Colony Color ([13]; enfa 597, air, 21 h): 0
- Colony Color ([13]; enfa 10741, CO2, 21 h): 0
- Colony Color ([13]; enfa 10741, air, 21 h): 0
- Colony Color ([13]; enfa 12953, CO2, 21 h): 0
- Colony Color ([13]; enfa 12953, air, 21 h): 0
- Colony Color ([13]; enfa 14506, CO2, 21 h): 0
- Colony Color ([13]; enfa 14506, air, 21 h): 0
- Colony Color ([13]; enfa 29212, CO2, 21 h): 0
- Colony Color ([13]; enfa 29212, CO2, 24 h): 0
- Colony Color ([13]; enfa 29212, air, 21 h): 0
- Colony Color ([13]; enfa 29212, air, 24 h): 0
- Colony Color (Summary) (E. faecium (enfu); [24]): 0
- Colony Color (E. faecium (enfu); CO2): 0
- Colony Color (E. faecium (enfu); air): 0
- Colony Color (Summary) [14, 21]: 0
- Colony Color ([14]; esco 11775, CO2, 21 h): 0
- Colony Color ([14]; esco 25922, CO2, 24 h): 0
- Colony Color ([14]; esco 25922, air, 24 h): 0
- Colony Color ([14]; esco 33605, CO2, 21 h): 0
- Colony Color (Summary) [15, 21]: 0
- Colony Color ([15]; klpn 13883, CO2, 21 h): 0
- Colony Color ([15]; klpn 33495, CO2, 24 h): 0
- Colony Color ([15]; klpn 33495, air, 24 h): 0
- Colony Color ([15]; klpn 33606, CO2, 21 h): 0
- Colony Color (Summary) [16, 21]: 0
- Colony Color ([16]; psae 9027): 0
- Colony Color ([16]; psae 15442): 0
- Colony Color ([16]; psae 33607): 0
- Colony Color (Summary) (Salmonella spp. (sasp); [22]): 0
- Colony Color (Salmonella spp. (sasp); saty 19430): 0
- Colony Color (Salmonella spp. (sasp); satym 14028): 0
- Colony Color (Summary) [17, 24]: 0
- Colony Color ([17]; sema 13880, CO2, 21 h): 0
- Colony Color (Summary) [18, 21]: 0
- Colony Color ([18]; stag 4768, CO2, 21 h): 0
- Colony Color ([18]; stag 4768, air, 21 h): 0
- Colony Color ([18]; stag 12386, CO2, 21 h): 0
- Colony Color ([18]; stag 12386, CO2, 24 h): 0
- Colony Color ([18]; stag 12386, air, 24 h): 0
- Colony Color (Summary) [19, 25]: 0
- Colony Color ([19]; stau 1006, CO2, 21 h): 0
- Colony Color ([19]; stau 1007, CO2, 21 h): 0
- Colony Color ([19]; stau 1008, CO2, 21 h): 0
- Colony Color ([19]; stau 1009, CO2, 21 h): 0
- Colony Color ([19]; stau 25923, CO2, 24 h): 0
- Colony Color ([19]; stau 25923, air, 24 h): 0
- Colony Color (Summary) [20, 25]: 0
- Colony Color ([20]; step 12228, CO2): 0
- Colony Color ([20]; step 12228, air): 0
- Colony Color ([20]; step cdc1, CO2): 0
- Colony Color ([20]; step cdc1, air): 0
- Colony Color ([20]; step cdc2, CO2): 0
- Colony Color ([20]; step cdc2, air): 0
- Colony Color ([20]; step cdc3, CO2): 0
- Colony Color ([20]; step cdc3, air): 0
- Colony Color ([20]; step cdc4, CO2): 0
- Colony Color ([20]; step cdc4, air): 0
- Colony Color (Summary) (S. milleri (stmi); [22]): 0
- Colony Color (S. milleri (stmi); CO2): 0
- Colony Color (S. milleri (stmi); air): 0
- Colony Color (Summary) (S. pneumoniae (stpn); [23]): 0
- Colony Color (S. pneumoniae (stpn); stpn 1259, CO2, 21 h): 0
- Colony Color (S. pneumoniae (stpn); stpn 1260, CO2, 21 h): 0
- Colony Color (S. pneumoniae (stpn); stpn 1331, CO2, 21 h): 0
- Colony Color (S. pneumoniae (stpn); stpn 1628, CO2, 21 h): 0
- Colony Color (S. pneumoniae (stpn); stpn 6303, CO2, 24 h): 0
- Colony Color (S. pneumoniae (stpn); stpn 6303, air, 24 h): 0
- Colony Color (S. pneumoniae (stpn); stpn 6305, CO2, 24 h): 0
- Colony Color (S. pneumoniae (stpn); stpn 6305, air, 24 h): 0
- Colony Color (Summary) (S pyogenes (stpy); [23]): 0
- Colony Color (S pyogenes (stpy); stpy 1027, CO2): 0
- Colony Color (S pyogenes (stpy); stpy 1028, CO2): 0
- Colony Color (S pyogenes (stpy); stpy 1029, CO2): 0
- Colony Color (S pyogenes (stpy); stpy 1030, CO2): 0
- Colony Color (S pyogenes (stpy); stpy 19615, CO2): 0
- Colony Color (S pyogenes (stpy); stpy 19615, air): 0
- Colony Color (S pyogenes (stpy); stpy 49117, CO2): 0
- Colony Color (S pyogenes (stpy); stpy 49117, air): 0
- Colony Color (S pyogenes (stpy); stpy 51339, CO2): 0
- Colony Color (S pyogenes (stpy); stpy 51339, air): 0
- Activity (color) for most organisms (55 strains): inactive
- Colony Color (cakr 34135): 0
- Colony Color (milu 9341): 0
